# According to PubChem BioAssay AID248 (DTP/NCI, 2004):
# Where “and” joins values, the source holds several entries; their conditions need not be identical. Equal values may be shown once. Inconclusive results and toxic doses are left out.
# Tested on: L1210 leukemia ip in BDF1 mice, survival T/C
# Test: NCI In Vivo Anticancer Drug Screen. Data for tumor model L1210 Leukemia (intraperitoneal) in B6D2F1 (BDF1) mice
# Conditions: endpoint: mean survival time, higher = longer survival
# Outline: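 Each compound was tested against a transplantable tumor grown in mice. The endpoint was survival, with treated animals benchmarked against vehicle controls as a simple ratio.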
# [1] = dose: 50.0 mg/kg/injection, schedule: Q04DX003 (ip), vehicle: Klucel (hydroxypropylcellulose) (HPC)
# [2] = dose: 100.0 mg/kg/injection, schedule: Q04DX003 (ip), vehicle: Klucel (hydroxypropylcellulose) (HPC)
# [3] = dose: 200.0 mg/kg/injection, schedule: Q04DX003 (ip), vehicle: Klucel (hydroxypropylcellulose) (HPC)
# [4] = dose: 400.0 mg/kg/injection, schedule: Q04DX003 (ip), vehicle: Klucel (hydroxypropylcellulose) (HPC)
# [5] = dose: 100.0 mg/kg/injection, schedule: Q01DX009 (ip), vehicle: saline
# [6] = dose: 200.0 mg/kg/injection, schedule: Q01DX009 (ip), vehicle: saline
# [7] = dose: 400.0 mg/kg/injection, schedule: Q01DX009 (ip), vehicle: saline
# [8] = dose: 100.0 mg/kg/injection, schedule: Q01DX009 (ip), vehicle: saline with Tween-80
# [9] = dose: 200.0 mg/kg/injection, schedule: Q01DX009 (ip), vehicle: saline with Tween-80
# [10] = dose: 50.0 mg/kg/injection, schedule: Q01DX009 (ip), vehicle: saline
# [11] = dose: 100.0 mg/kg/injection, schedule: Q01DX001 (ip), vehicle: saline
# [12] = dose: 100.0 mg/kg/injection, schedule: Q04DX003 (ip), vehicle: saline
# [13] = dose: 200.0 mg/kg/injection, schedule: Q04DX003 (ip), vehicle: saline
# [14] = dose: 400.0 mg/kg/injection, schedule: Q04DX003 (ip), vehicle: saline
# [15] = dose: 100.0 mg/kg/injection, schedule: Q01DX001 (ip), vehicle: saline with Tween-80
# [16] = dose: 25.0 mg/kg/injection, schedule: Q01DX009 (ip), vehicle: saline with Tween-80
# [17] = dose: 50.0 mg/kg/injection, schedule: Q01DX009 (ip), vehicle: saline with Tween-80
# [18] = dose: 100.0 mg/kg/injection, schedule: Q01DX009 (ip), vehicle: Klucel (hydroxypropylcellulose) (HPC)
# [19] = dose: 200.0 mg/kg/injection, schedule: Q01DX009 (ip), vehicle: Klucel (hydroxypropylcellulose) (HPC)
# [20] = dose: 400.0 mg/kg/injection, schedule: Q01DX009 (ip), vehicle: Klucel (hydroxypropylcellulose) (HPC)
# [21] = dose: 200.0 mg/kg/injection, schedule: Q01DX001 (ip), vehicle: saline
# [22] = dose: 400.0 mg/kg/injection, schedule: Q01DX001 (ip), vehicle: saline
smiles,measurement,setting,value
CC(C)OC(=O)NC1C=CC=CC=C1,T/C,[1],98 % of control
same,T/C,[2],93 % of control
same,T/C,[3],104 % of control
same,T/C,[4],106 % of control
O=C1OC(/C=C/c2ccccc2)=NC/1=C\c1ccc(Cl)cc1,T/C,[5],105 % of control
same,T/C,[6],105 % of control
same,T/C,[7],94 % of control
ClCCN(CCCl)c1ccc(C=Nc2ccc(-n3ccnc3)cc2)c(Cl)c1,T/C,"dose: 80.0 mg/kg/injection, schedule: Q04DX002 (ip), vehicle: Klucel (hydroxypropylcellulose) (HPC)",95 % of control
same,T/C,"dose: 160.0 mg/kg/injection, schedule: Q04DX002 (ip), vehicle: Klucel (hydroxypropylcellulose) (HPC)",102 % of control
same,T/C,"dose: 320.0 mg/kg/injection, schedule: Q04DX002 (ip), vehicle: Klucel (hydroxypropylcellulose) (HPC)",98 % of control
CCCCCC(/C=C/C1C=CC(=O)C1C/C=C/CCCC(=O)OC)OC(C)=O (stereo not given),T/C,[8],100 % of control
same,T/C,[9],97 % of control
O=C(O)CCNCc1ccccc1,T/C,[10],100 % of control
same,T/C,[5],108 % of control
same,T/C,"dose: 100.0 mg/kg/injection, schedule: Q04DX002 (ip), vehicle: saline",111 % of control
same,T/C,[6],100 % of control
same,T/C,"dose: 200.0 mg/kg/injection, schedule: Q04DX002 (ip), vehicle: saline",97 % of control
same,T/C,"dose: 400.0 mg/kg/injection, schedule: Q04DX002 (ip), vehicle: saline",97 % of control
CCCCCCC(N)C(=O)O (stereo not given),T/C,"dose: 25.0 mg/kg/injection, schedule: Q04DX002 (ip), vehicle: Klucel (hydroxypropylcellulose) (HPC)",95 % of control
same,T/C,"dose: 50.0 mg/kg/injection, schedule: Q04DX002 (ip), vehicle: Klucel (hydroxypropylcellulose) (HPC)",104 % of control
same,T/C,"dose: 100.0 mg/kg/injection, schedule: Q04DX002 (ip), vehicle: Klucel (hydroxypropylcellulose) (HPC)",100 % of control
same,T/C,[2],96 % of control
same,T/C,[3],100 % of control
same,T/C,[4],103 % of control
NNC(=O)CCCc1ccccc1,T/C,"dose: 25.0 mg/kg/injection, schedule: Q01DX009 (ip), vehicle: saline",97 % of control
same,T/C,[10],103 % of control
same,T/C,[11],105 % of control
CCCC(C)C(=NC)Nc1ccc(Cl)c(Cl)c1 (stereo not given),T/C,"dose: 11.1 mg/kg/injection, schedule: Q01DX Z (ip), vehicle: methylcellulose (MC)",91 % of control
same,T/C,"dose: 16.6 mg/kg/injection, schedule: Q01DX Z (ip), vehicle: methylcellulose (MC)",95 % of control
COCBr,T/C,[5],110 % of control
same,T/C,[12],103 % of control
same,T/C,[6],101 % of control
same,T/C,[13],103 % of control
same,T/C,[14],94 % of control
[Si]c1ccc(-c2ccccc2)cc1,T/C,"dose: 25.6 mg/kg/injection, schedule: Q04DX002 (ip), vehicle: saline with Tween-80",101 % of control
same,T/C,"dose: 64.0 mg/kg/injection, schedule: Q04DX002 (ip), vehicle: saline with Tween-80",97 % of control
same,T/C,"dose: 100.0 mg/kg/injection, schedule: Q04DX003 (ip), vehicle: saline with Tween-80",87 % of control
same,T/C,"dose: 160.0 mg/kg/injection, schedule: Q04DX002 (ip), vehicle: saline with Tween-80",87 % of control
same,T/C,"dose: 400.0 mg/kg/injection, schedule: Q04DX002 (ip), vehicle: saline with Tween-80",90 % of control
CCOC(=O)CC(C(=O)OCC)C(OCC)OCC (stereo not given),T/C,[12],104 % of control
same,T/C,[13],106 % of control
same,T/C,[14],111 % of control
N#Cc1ccc(OCCCOc2ccccc2)cc1,T/C,[15],100 % of control
same,T/C,"dose: 200.0 mg/kg/injection, schedule: Q01DX001 (ip), vehicle: saline with Tween-80",102 % of control
same,T/C,"dose: 400.0 mg/kg/injection, schedule: Q01DX001 (ip), vehicle: saline with Tween-80",93 % of control
CNC(=O)N(C)N=O,T/C,"dose: 10.0 mg/kg/injection, schedule: Q01DX Z (ip), vehicle: carboxymethylcellulose (CMC)",92 % of control
same,T/C,"dose: 75.0 mg/kg/injection, schedule: Q01DX Z (ip), vehicle: carboxymethylcellulose (CMC)",157 % of control and 168 % of control
same,T/C,"dose: 100.0 mg/kg/injection, schedule: Q01DX Z (ip), vehicle: carboxymethylcellulose (CMC)",155 % of control
same,T/C,"dose: 125.0 mg/kg/injection, schedule: Q01DX Z (ip), vehicle: carboxymethylcellulose (CMC)",101 % of control
CCCCOc1cc([N+](=O)[O-])ccc1CO,T/C,[8],109 % of control
same,T/C,[9],98 % of control
same,T/C,"dose: 400.0 mg/kg/injection, schedule: Q01DX009 (ip), vehicle: saline with Tween-80",98 % of control
c1ccc2cc3c(cc2c1)Nc1ccncc1N3,T/C,"dose: 12.5 mg/kg/injection, schedule: Q01DX009 (ip), vehicle: saline with Tween-80",106 % of control
same,T/C,[16],103 % of control
same,T/C,[17],100 % of control
Cc1ccccc1C(=O)C(C#N)c1ccccc1 (stereo not given),T/C,[16],103 % of control and 92 % of control
same,T/C,"dose: 25.0 mg/kg/injection, schedule: Q04DX003 (ip), vehicle: saline with Tween-80",98 % of control
same,T/C,"dose: 50.0 mg/kg/injection, schedule: Q01DX001 (ip), vehicle: saline with Tween-80",95 % of control
same,T/C,[17],96 % of control and 103 % of control
same,T/C,"dose: 50.0 mg/kg/injection, schedule: Q04DX002 (ip), vehicle: saline with Tween-80",97 % of control
same,T/C,"dose: 50.0 mg/kg/injection, schedule: Q04DX003 (ip), vehicle: saline with Tween-80",102 % of control
same,T/C,[15],90 % of control
same,T/C,[8],113 % of control and 118 % of control
same,T/C,"dose: 100.0 mg/kg/injection, schedule: Q04DX002 (ip), vehicle: saline with Tween-80",93 % of control and 111 % of control and 88 % of control
same,T/C,"dose: 200.0 mg/kg/injection, schedule: Q04DX002 (ip), vehicle: saline with Tween-80",90 % of control
Clc1ccc(SCN2CCCCC2)cc1,T/C,"dose: 25.0 mg/kg/injection, schedule: Q04DX003 (ip), vehicle: Klucel (hydroxypropylcellulose) (HPC)",93 % of control
same,T/C,[1],95 % of control
same,T/C,[2],93 % of control and 95 % of control
Cc1cccc(Cl)c1NC(=O)Nc1ccc(S(N)(=O)=O)cc1,T/C,[18],94 % of control
same,T/C,[19],102 % of control
same,T/C,[20],92 % of control
COC1OC(COC(=O)c2ccc([N+](=O)[O-])cc2)C2OC12 (stereo not given),T/C,"dose: 100.0 mg/kg/injection, schedule: Q01DX001 (ip), vehicle: carboxymethylcellulose (CMC)",100 % of control
same,T/C,[11],101 % of control
same,T/C,"dose: 200.0 mg/kg/injection, schedule: Q01DX001 (ip), vehicle: carboxymethylcellulose (CMC)",95 % of control
same,T/C,[21],101 % of control and 109 % of control
same,T/C,"dose: 400.0 mg/kg/injection, schedule: Q01DX001 (ip), vehicle: carboxymethylcellulose (CMC)",89 % of control
same,T/C,[22],101 % of control
O=[N+]([O-])c1ccc(N/N=C/c2ccccn2)cc1,T/C,[18],87 % of control
same,T/C,[19],95 % of control
same,T/C,[20],97 % of control
CC(C=C1CCCCC1)C(=O)O (stereo not given),T/C,[5],95 % of control
same,T/C,[12],102 % of control
same,T/C,[6],105 % of control
same,T/C,[13],102 % of control
same,T/C,[7],97 % of control
same,T/C,[14],105 % of control
CN(C)c1ccc(/C=C\C=N\NC(=O)CCCC(=O)N/N=C/C=C/c2ccc(N(C)C)cc2)cc1,T/C,"dose: 50.0 mg/kg/injection, schedule: Q01DX001 (ip), vehicle: saline",96 % of control
same,T/C,[11],96 % of control
same,T/C,[21],96 % of control
same,T/C,[22],90 % of control
O=C(O)CNCc1cccc(Br)c1,T/C,[5],103 % of control
same,T/C,[12],95 % of control
same,T/C,[6],92 % of control
same,T/C,[13],113 % of control
same,T/C,[7],98 % of control
same,T/C,[14],98 % of control
COc1ccc2c(c1OC)C13CCN(C)C(C2)C12C=CC(=O)C3c1c(OC)ccc(OC)c12 (stereo not given),T/C,[11],95 % of control
same,T/C,[21],95 % of control
same,T/C,[22],91 % of control
Cc1c(N)nc(=S)[nH]c1C(=O)O,T/C,"dose: 50.0 mg/kg/injection, schedule: Q01DX001 (ip), vehicle: Klucel (hydroxypropylcellulose) (HPC)",95 % of control
same,T/C,[1],91 % of control
same,T/C,"dose: 100.0 mg/kg/injection, schedule: Q01DX001 (ip), vehicle: Klucel (hydroxypropylcellulose) (HPC)",97 % of control
same,T/C,[2],105 % of control
same,T/C,"dose: 200.0 mg/kg/injection, schedule: Q01DX001 (ip), vehicle: Klucel (hydroxypropylcellulose) (HPC)",106 % of control
same,T/C,[3],94 % of control
